Ends that are not written are not given here.
What was measured:
[1] = tested on: HepG2 cells; test: MTT cell viability of HepG2 cells; conditions: for Effect on the viability of HepG2 cells: MTT, peptide 0.01–0.1 mg/mL
[2] = cited from earlier work
Text: Subsequently, the ABTS method was utilized to determine the total antioxidant activity of the stigma protein. […] We screened 289 saffron antioxidant peptides by comparing with the BIOPEP database. Among them, the saffron peptides with high abundance in the range from tetrapeptide to decapeptide were selected. […] It has been reported that hydrophobic a ...

## OO [H2O2]
[1]; HepG2, MTT, H2O2 300 mM
  Cell viability decline: about 50%

## N[C@@H](Cc1ccccc1)C(=O)O [Phe]
[2]
  Concentration at which ABTS scavenging activity is shown: 10^−3 mol/L

## DGGSDYLGK [DGGSDYLGK]
[1]
  Effect on the viability of HepG2 cells: no significant effects

## VDPYFNK [VDPYFNK]
[1]
  Effect on the viability of HepG2 cells: no significant effects

Source: article PMC10967730, “Identification and Functional Validation of Two Novel Antioxidant Peptides in Saffron” (Antioxidants, 2024)
